Literature values as cited in US10478399B2, “Modified release tablet composition comprising mirabegron” (SYNTHON B.V., priority 2017, dated 2019).

What was measured:
[1] = neutral to acidic pH
[2] = presence of food in the GI tract

Nc1nc(CC(=O)Nc2ccc(CCNC[C@H](O)c3ccccc3)cc2)cs1 [Mirabegron, (R)-2-(2-aminothiazol-4-yl)-4′-[2-[(2-hydroxy-2-phenylethyl)amino]ethyl]acetic acid anilide]
permeability (BCS): low permeability | solubility (BCS): high solubility | solubility in water [1]: soluble in water between neutral to acidic pH | effect of food on bioavailability [2]: affected by the presence of food
